Measurements taken from publication PMC11847541, “Liver fatty acid binding protein FABP1 transfers substrates to cytochrome P450 4A11 for catalysis” (The Journal of Biological Chemistry, 2025).
“Also recorded” adds a separate entry of the source. Like-named read-outs stand apart in the source and are kept apart here.

How the values were obtained:
[1] = biological target: T1, P450 4A11 (Homo sapiens, UniProt Q02928); assay: Equilibrium binding titrations of P450 4A11 with lipids (heme Soret spectral shift); conditions: P450 1 µM, DAUDA 1 nM to 10 µM
T1 sequence (Q02928 5-519): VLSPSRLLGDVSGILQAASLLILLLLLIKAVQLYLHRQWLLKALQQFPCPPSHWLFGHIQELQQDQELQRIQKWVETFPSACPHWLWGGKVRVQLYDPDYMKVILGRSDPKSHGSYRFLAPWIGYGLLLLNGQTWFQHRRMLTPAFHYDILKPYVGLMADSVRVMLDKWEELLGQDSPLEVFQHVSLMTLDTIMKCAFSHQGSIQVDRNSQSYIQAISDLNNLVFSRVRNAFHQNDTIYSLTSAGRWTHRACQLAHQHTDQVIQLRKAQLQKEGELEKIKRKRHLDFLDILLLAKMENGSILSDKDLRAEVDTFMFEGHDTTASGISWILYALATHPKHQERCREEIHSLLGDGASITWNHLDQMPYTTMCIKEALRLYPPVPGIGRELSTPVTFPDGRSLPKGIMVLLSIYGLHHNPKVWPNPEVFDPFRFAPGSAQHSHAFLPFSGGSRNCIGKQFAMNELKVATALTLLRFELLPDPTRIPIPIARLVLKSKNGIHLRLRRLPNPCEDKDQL
Method: Affinity of palmitate and 16-OH palmitate for P450 4A11 (1 μM) was assessed by monitoring the blue shift (from ∼420 nm to ∼390 nm) of the P450 heme Soret band as a substrate binds and displaces the sixth axial heme ligand (H2O) to yield pentacoordinated heme (“type I” shift) ([26]).
P450 4A11 (1 μM) was titrated with (A) palmitate and (B) 16-OH palmitate in a 1.0 cm pathlength cell. Difference plots were calculated from absorbance maxima (∼390 nm) and minima (∼420 nm), and the data were fit to a hyperbolic equation. The insets in each panel are the difference spectra between a cuvette that received the lipid substrate and a cuvette that received solvent alone. Each data point corresponds to one independent replicate.
Equilibrium binding titrations with P450 4A11 (1 μM) were performed in buffer (100 mM potassium phosphate [pH 7.4]) as described previously ([44], [56]). Briefly, a baseline was first acquired on an OLIS-Cary 14 spectrophotometer set to scan from 350 to 500 nm in 1 cm glass cuvettes. […] The cuvettes were mixed with a plumper after additions, and spectra were recorded. The spectra were exported into Microsoft Excel software, and the absorbance values at 418 nm were subtracted from those at 390 nm and the values were plotted as a function of lipid concentration.
Titration of P450 4A11 with DAUDA. The P450 concentration was 1 µM and the DAUDA concentration was varied using a geometric series from 1 nM to 10 µM. […] The increase in absorbance in the UV region is due to the strong chromophore in the DAUDA dansyl moiety (Fig. S8).

[2] = biological target: T2, FABP1 (Homo sapiens, UniProt P07148); assay: Fluorescence titration of DAUDA with FABP1 (reverse titration); assay type: binding; conditions: DAUDA 50 nM, FABP1 titrated, quadratic fit
T2 construct: GST (N, cleaved yes); made in house; host or cells: Escherichia coli DH5α
T2 sequence (P07148 with tags, fused parts or gaps): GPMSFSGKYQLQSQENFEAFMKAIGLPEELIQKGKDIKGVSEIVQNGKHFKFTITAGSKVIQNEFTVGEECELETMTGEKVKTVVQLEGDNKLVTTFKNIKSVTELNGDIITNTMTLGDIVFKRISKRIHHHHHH
Method: Binding of DAUDA to FABP1 was assessed in a “reverse titration” where FABP1 was titrated into a fixed concentration of DAUDA (50 nM), yielding a characteristic gain of fluorescence (Fig. 4A) at 482 nm. FABP1 was titrated into a solution of DAUDA (“reverse titration”) and not vice versa because of the intrinsic fluorescence of DAUDA (Fig. S11E), which overlaps with the spectrum of DAUDA–FABP1 (Fig. 4A). The intrinsic fluorescence of DAUDA was generally only problematic at concentrations much higher (>500 nM) than used in the assays (50 nM), though we sought to eliminate this additional variable by performing the reverse titration to estimate the Kd.
Figure 4 Fluorescence titration of DAUDA with FABP1 (“reverse” titration).A, fluorescence spectra (λex = 335 nm) of DAUDA (0.05 μM) collected with increasing concentrations of FABP1 (0–1.25 μM). The binding of DAUDA to FABP1 is accompanied by a gain of fluorescence, indicated with an arrow. B, titration curve calculated with data points (n = 1) at the observed fluorescence maximum (482 nm) and plotted versus concentration of FABP1. Data were fit to a quadratic equation. DAUDA, 11-dansylaminoundecanoic acid; FABP1, fatty acid binding protein. […]

[3] = biological target: T2, FABP1; assay: Stopped-flow kinetics of DAUDA binding to FABP1
Method: In order to measure the rate of binding of DAUDA to FABP1, four concentrations (0.5–12.5 μM) of DAUDA were rapidly mixed with FABP1 (0.5 μM), and the gain of fluorescence (at 482 nm, Fig. 4A) was monitored over time (Fig. 6, A–D). […] A kon value (k4) of 9.0 ± 0.2 × 10^7 M^−1 s^−1 was calculated from the data (see the Experimental procedures section) (Fig. 6F).
Figure 6 Kinetics of binding of DAUDA to FABP1. FABP1 (0.5 μM) was mixed with (A) 0.5 μM, (B) 2.5 μM, (C) 5 μM, and (D) 12.5 μM DAUDA to yield the binding traces shown. DAUDA–FABP1 was excited (λex = 335 nm) as in Fig. 4 and total fluorescence signal >420 nm was collected. Data were fit to double exponential curves, and (E) the rate of the fast phase was extracted and plotted against DAUDA concentration. The data curve was fit to a Michaelis–Menten-type hyperbola. Each trace corresponds to ≥6 averaged replicate traces. In part A, the binding of DAUDA (0.5 μM) was proportional to the disappearance of protein (0.5 μM). The reciprocal concentration of FABP1 was plotted against time in part F, and the slope of the linear portion (linear regression in red) of that curve ([77]) gave an on-rate (kon) of 9.0 × 10^7 M^−1 s^−1. DAUDA, 11-dansylaminoundecanoic acid; FABP1, fatty acid binding protein.
Determination of the DAUDA on-rate (kon) to FABP1 was performed by mixing FABP1 (1 μM) and DAUDA ([…], see “Preparation of DAUDA stock solutions”) solutions (both in 100 mM potassium phosphate buffer, pH 7.4) in equal proportion (yielding a twofold dilution of all reaction components) using an OLIS stopped-flow spectrofluorometer with the parameters set as described earlier (see “P450 4A11 kon determinations”). […] At least six replicate measurements were recorded, the spectra were processed such that the fluorescence gain (from DAUDA binding) began at an (x, y) intercept of (0, 0), and the spectra were averaged and fit to double exponential plots in GraphPad Prism, and the rates for the fast (kon) and slow phases of binding were extracted. Then, as the first experiment was recorded by mixing equimolar (1 μM) concentrations of FABP1 and DAUDA and the binding was rapid, we approximated the binding as 2A → C (i.e., mathematically equivalent to A + B → C when the depletion of B is equal to the depletion of A ([77])). We plotted [FABP]^−1 as a function of time and fit the data to a linear equation (the slope of which is kon).

[4] = Stability of DAUDA stock solutions; assay type: physicochemical
Method: DAUDA stock solutions (10 mM, prepared in C2H5OH) could be stored at −20 °C for up to 1 week with no significant decay of the UV spectrum and no formation of degradation peaks in the LC–MS chromatogram. Storage under these conditions for more than 1 week did compromise sample integrity (and the samples were discarded). We later observed that DAUDA stock solutions (10 mM) prepared in 50 mM K2CO3 and frozen at −80 °C could undergo several freeze–thaw cycles over the course of 2 months with no significant decay of the UV spectrum and no formation of degradation peaks in the LC–MS chromatogram.

[5] = biological target: T2, FABP1; conditions: cited from earlier work

For `CN(C)c1cccc2c(S(=O)(=O)NCCCCCCCCCCC(=O)O)cccc12` [DAUDA, 11-dansylaminoundecanoic acid], the “binding to P450 4A11 (type I spectral shift)” value [1] was “not detected; also recorded: did not bind”, the Kd [2] was 56 nM and the kon ([3]; FABP1 0.5 μM, DAUDA 0.5 μM, read-out: kon of DAUDA to FABP1 (k4)) was 9e+07 M⁻¹ s⁻¹. The koff ([3]; calculated from kon and Kd) was 5 s⁻¹, the “koff from FABP1 relative to koff from P450 4A11” value ([3]; faster) was 25 fold and the “kon of DAUDA to FABP1 relative to palmitate binding to P450 4A11” value ([3]; faster) was over 2000 fold. The “storage time with no significant decay of UV spectrum and no degradation peaks” value ([4]; 10 mM in 50 mM K2CO3, −80 °C, several freeze–thaw cycles) was 2 months, the “storage time with no significant decay of UV spectrum and no degradation peaks” value ([4]; 10 mM in C2H5OH, −20 °C) was “up to 1 week” and the Kd ([5]; human ortholog, high-affinity site, read-out: Kd,1) was 200 nM. For the same molecule, the Kd ([5]; human ortholog, low-affinity site, read-out: Kd,2) was over 3300 nM and the Kd ([5]; literature estimate, high-affinity site, read-out: Kd) was over 460 nM.
